Laboratory results from patent publication US20140084216A1 (Merck Patent GmbH, priority 2011, published 2014).

- melting point: 92 to 94 °C
SMILES: C=CC(=O)OCCN(CCOC(=O)C=C)c1ccc(N=Nc2snc(C)c2C#N)c(NC(C)=O)c1 [Example 5, Acrylic acid 2-[{3-acetylamino-4-(4-cyano-3-methylisothiazol-5-ylazo)-phenyl}-{2-acryloyloxyethyl}-amino]-ethyl ester]
